In patent US20130066264A1, “SUGAR-RESPONSIVE GEL AND MEDICINE ADMINISTERING DEVICE” (NATIONAL INSTITUTE FOR MATERIALS SCIENCE, priority 2010, published 2013):

Conditions: acid-base titration, FIG. 2
Text: Next, for the sample 1, the comparative sample 1 and the comparative sample 2, the relationships between glucose concentrations and apparent changes in pKa were derived by acid-base titration in the conditions of various glucose concentrations (0 g/L, 1 g/L, 3 g/L, 5 g/L and g/L).

SMILES: C=CC(=O)NCCNC(=O)c1ccc(B(O)O)cc1F [sample 1, 4-(2-acrylamideethylcarbamoyl)-3-fluorophenylboronic acid]
- apparent pKa (glucose 0 g/L, 1 g/L, 3 g/L, 5 g/L and g/L (samples a1 to a5)): < 7.4
- degree of decrease in pKa according to the increase in concentration of glucose, versus comparative samples 1 and 2 (various glucose concentrations): remarkably superior
